Data set [1] deals with MDR over non-MDR human breast cancer cell lines. As to the kind of experiment: MDR liability: growth inhibition in MDR over non-MDR human breast cancer cell lines. The class given is cell-based.
The nature of data set [2]: Stability of PAC esters in aqueous media at pH 7.4 and 37° C. The class given is physicochemical. The following applies: read-out: T½ (apparent half-life in aqueous media) (converted).
Data set [3] has as its system MCF7 human breast cancer cell. Description: Inhibition of MCF7 human breast cancer cell growth (non-MDR cell line). The class given is cell-based. The following applies: read-out: Potency (dose that inhibits MCF7 human breast cancer cell growth by 50%).

Broadly, the half-life is how long it takes for the measured level to halve.

As to `CC(=O)O[C@H]1C(=O)[C@@]2(C)[C@H]([C@H](OC(=O)c3ccccc3)[C@]3(O)C[C@H](OC(=O)[C@H](O)[C@@H](NC(=O)c4ccccc4)c4ccccc4)C(C)=C1C3(C)C)[C@]1(OC(C)=O)CO[C@@H]1C[C@@H]2O` [PAC, Paclitaxel], the MDR liability result in data set [1] was “about 1000 fold”. In data set [1] (MDR over non-MDR human breast cancer cell lines), the “MDR Liability (ratio of doses inhibiting growth by 50% in MDR over non-MDR human breast cancer cell lines)” value amounted to 1041. Besides, the half-life in data set [2] is 11.6 days. In addition, in data set [3], the IC50 was 6.9 nM.
